Experiments:
[1] = cynomolgus monkey, in vivo, sc, 40 mg/kg
[2] = cynomolgus monkey, in vivo, sc, 40 mg/kg; remark: listed apart in the source
Procedure: (§1) Prior to the study, the monkeys were kept in quarantine for a 30-day period, during which the animals were observed daily for general health. The monkeys were 2-4 years old and weighed between 2 and 4 kg. Thirteen groups of four randomly assigned male cynomolgus monkeys each were injected subcutaneously with ISIS oligonucleotide or PBS. PBS solution or ISIS oligonucleotides, at a dose of 40 mg/kg, were administered with a loading regimen consisting of four doses on the first week of the study (days 1, 3, 5, and 7), followed by a maintenance regimen consisting of once weekly administration starting on Day 14 (weeks 2 to 6). Subcutaneous injections were performed in clock-wise rotations at 4 sites on the back; one site per dose. The injection sites were delineated by tattoo, while sedated using ketamine, and were separated by a minimum of 3 cm.
Kidney function was also assessed by urinalysis. Fresh urine from all animals was collected on day 44 using a clean cage pan on wet ice. Food was removed overnight the day before fresh urine collection was done but water was supplied. The total protein and creatinine levels were measured using a Toshiba 120FR NEO automated chemistry analyzer (Toshiba Co., Japan) and the protein to creatinine ratio was calculated.

[3] = cynomolgus monkey, in vivo, sc, 40 mg/kg; remark: listed apart in the source
Procedure: as §1
To evaluate the effect of ISIS oligonucleotides on hepatic function, the monkeys were fasted overnight. Approximately, 1.5 mL of blood samples were collected on day 44 from all the study groups. Blood was collected in tubes without anticoagulant for serum separation. The tubes were kept at room temperature for a minimum of 90 min and then centrifuged at 3,000 rpm for 10 min. Levels of various liver function markers were measured using a Toshiba 120FR NEO chemistry analyzer (Toshiba Co., Japan).

[4] = cynomolgus monkey, in vivo, sc, 40 mg/kg; remark: listed apart in the source
[5] = cynomolgus monkey, in vivo, sc, 40 mg/kg; remark: listed apart in the source
Procedure: as §1
To evaluate the effect of ISIS oligonucleotides on kidney function, the monkeys were fasted overnight. Approximately, 1.5 mL of blood samples were collected from all the study groups on day 44. Blood was collected in tubes without anticoagulant for serum separation. The tubes were kept at room temperature for a minimum of 90 min and then centrifuged at 3,000 rpm for 10 min. Levels of BUN and creatinine were measured using a Toshiba 120FR NEO chemistry analyzer (Toshiba Co., Japan).

[6] = cynomolgus monkey, in vivo, sc, 40 mg/kg; remark: listed apart in the source
Procedure: as §1
To evaluate any effect of ISIS oligonucleotides in cynomolgus monkeys on hematologic parameters, blood samples of approximately 0.5 mL of blood was collected day 44 from each of the available study animals in tubes containing K2-EDTA. Samples were analyzed for red blood cell (RBC) count, white blood cells (WBC) count, platelet count, hemoglobin content and hematocrit, using an ADVIA2120i hematology analyzer (SIEMENS, USA).

Substance | Body Wt [1] | Heart weight [1] | Kidney weight [1] | Liver weight [1] | Mesenteric lymph nodes weight [1] | Spleen weight [1] | Urine protein/creatinine ratio [2] | ALT [3] | AST [3] | Albumin [3] | C3 (% of baseline) [4] | CRP [4] | Plasma BUN [5] | Plasma Creatinine [5] | HCT [6] | Hemoglobin [6] | Platelets [6] | RBC [6] | WBC [6]
GATTTAATGGTTGCAA (cEt gapmer chemistry, further chemistry not given here) [ISIS 586124] | 2.5 kg | 9.4 g | 14 g | 58 g | 2.8 g | 3.3 g | 0.01 | 56 IU/L | 94 IU/L | 3.9 g/dL | 93 % of baseline | 4.0 mg/dL | 23.8 mg/dL | 0.87 mg/dL | 45% | 13.6 g/dL | 391000 µL | 5.8e+06 µL | 10400 µL
ISIS 584163: antisense compound targeted to human AR (GAACATTATTAGGCTA; 3-10-3 (S)-cEt gapmer, further chemistry not given here) | 2.5 kg | 8.4 g | 15 g | 54 g | 3.3 g | 3.2 g | 0.01 | 50 IU/L | 68 IU/L | 4.2 g/dL | 102 % of baseline | 1.0 mg/dL | 22.4 mg/dL | 0.82 mg/dL | 44% | 12.8 g/dL | 461000 µL | 5.5e+06 µL | 9100 µL
ISIS 583918: antisense compound targeted to human AR (AGTCGCGACTCTGGTA; 3-10-3 (S)-cEt gapmer, further chemistry not given here) | 2.5 kg | 8.9 g | 12 g | 60 g | 3.5 g | 4.6 g | 0.01 | 75 IU/L | 73 IU/L | 4.1 g/dL | 89 % of baseline | 3.5 mg/dL | 24.5 mg/dL | 0.87 mg/dL | 46% | 13.3 g/dL | 435000 µL | 5.8e+06 µL | 12700 µL

Source: USRE48461E1, “Modulation of androgen receptor expression” (Ionis Pharmaceuticals, Inc., priority 2012, dated 2021)
